We go through eight compounds from PubChem BioAssay AID1963827 (Molecular Pharmacology Branch, DTP, NCI, 2024).

The subject of this experiment is 994946-033-R-J1-PDC complex spheroid viability. The experiment can be described thus: Anticancer human tumor 994946-033-R-J1-PDC patient-derived melanoma cell line growth inhibition [POLQ]. As to conditions: for viability, T/C: stronger effect = lower value. How it is done:
Multicellular complex tumor spheroid response to Polymerase (POL) inhibitors (novobiocin, ART-558, RP6685) in combination with a variety of drugs and investigational agents in selected tumor cell lines
The POL inhibitors (novobiocin, ART-558, and RP6685) were evaluated both individually and in combination with standard of care and investigational anticancer small molecules within a complex spheroid model of solid tumors. . Complex spheroids include a stromal component modeled by human endothelial cells (HUVEC) and fibroblasts modeled by human mesenchymal stem cells (MSCs). The concentration ranges selected for each drug and investigational agent were based upon clinically achievable concentrations if the clinical Cmax of the agent was known.
Compounds. The drugs and investigational agents: novobiocin (NSC847541), ART-558 (NSC835418), RP-6685 (NSC848927), peposertib (NSC802822), ceralasertib (NSC780249), elimusertib (NSC800525), camonsertib (NSC841442), AZD-1390 (NSC803789), olaparib (NSC753686), talazoparib (NSC767125), rucaparib (NSC756644), sotorasib (NSC818433), MRTX-1133 (NSC836407), SN-38 (NSC673596), topotecan (NSC609699), epotoside (NSC141540), doxorubicin (NSC123127), gemcitabine (NSC613327), 5-fluorouracil (NSC19893), paclitaxel (NSC125973), vemurafenib (NSC761431), MSA-2 (NSC828583), SN-011 (NSC837082), adavosertib (NSC754352), prexasertib (NSC758257), carboplatin (NSC241240) and oxaliplatin (NSC266046), were obtained from the National Cancer Institute (NCI) Developmental Therapeutics Program Chemical Repository (21). The FDA-approved anticancer drug set is available from the Developmental Therapeutics Program at https://dtp.cancer.gov/organization/dscb/obtaining/. […] The stock solutions were prepared in dimethyl sulfoxide (DMSO, Sigma-Aldrich, St. Louis, MO, cat. D2650), except for the platinum compounds which were prepared in saline (Quality Biological, Gaithersburg, MD, cat. 114-055-101), at 800-fold the tested concentration and stored at -70 degrees C prior to their use. All drugs and investigational agents were tested over a range starting from a high concentration at or near the clinical Cmax and decreasing in half-log increments. If the clinical Cmax for an agent had not been determined, the highest concentration tested was 10 microM, except for SN-38, which was tested at a high concentration of 1 microM.
Cell Culture. All cells were maintained in an incubator at 37 degrees C and 5% CO2 with 95% humidity. The PDC lines were cultured according to standard operating procedures established by the NCI PDMR (https://pdmr.cancer.gov). Table 3 of the manuscript, lists the cell lines along with the number of the three cell types plated to form the mct-spheroids and media for tumor cell growth. After thawing, all PDC lines, except 997537-175-T-J1-PDC and 415267-285-R-J2-PDC, were cultured in Matrigel-coated flasks prepared with a working solution of 1X Ham's F-12 nutrient mix, without supplementation (Thermo Fisher Scientific, cat. 11765054), 100 U/mL penicillin-streptomycin (Thermo Fisher Scientific, cat. 15140122), and 2.5% Matrigel (Corning Inc., Corning, NY, cat. 354248) for the first three passages. The two PDC lines 997537-175-T-J1-PDC and 415267-285-R-J2-PDC were cultured on uncoated flasks. The 857933-349-R-J2-PDC line was cultured in 6C/Colon 1B media containing advanced DMEM/F-12 (Thermo Fisher Scientific, cat. 12634028), 10 mM HEPES (Thermo Fisher Scientific, cat. 15630080), 1X GlutaMAX supplement (Thermo Fisher Scientific, cat. 35050061), 0.1 mg/mL primocin (InvivoGen, San Diego, CA, cat. ant-pm-2), 10% defined fetal bovine serum, heat inactivated (HyClone Laboratories Inc., Logan, UT, cat. SH30070.03HI), 50% L-WRN conditioned media (ATCC, cat. CRL-3276), 1.25 mM N-Acetyl-L-cysteine (Sigma-Aldrich, cat. A9165), 10 mM nicotinamide (Sigma-Aldrich, cat. N0636), 1X B-27 supplement (Thermo Fisher Scientific, cat. 17504044), 1X N-2 supplement (Thermo Fisher Scientific, cat. […]

Values joined by “and” are separate entries in the source; they are usually repeats but may differ in a detail not shown here. Equal entries are not always repeated.
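Also: spheroids exposed to drugs for 7 days.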

As to `CC(=O)O[C@H]1C(=O)[C@@]2(C)[C@H]([C@H](OC(=O)c3ccccc3)[C@]3(O)C[C@H](OC(=O)[C@H](O)[C@@H](NC(=O)c4ccccc4)c4ccccc4)C(C)=C1C3(C)C)[C@]1(OC(C)=O)CO[C@@H]1C[C@@H]2O`, the viability, T/C is 24.4% and 24.8% and 18.7% (compound 0.00949 µM); 21.9% and 23.1% and 18.1% (compound 0.03 µM); 18.5% and 17.9% (2×) (compound 0.0949 µM); 17.7% and 11.9% and 15.6% (compound 0.3 µM); 18.8% and 15.4% and 12.7% (compound 0.949 µM); 11.4% and 13% and 9.5% (compound 3 µM). Further, for the setting “curve of compound”, the IC50 was below 9.49 nM.
For `Cn1ncnc1[C@H]1c2n[nH]c(=O)c3cc(F)cc(c23)N[C@@H]1c1ccc(F)cc1` + COC1C(OC(N)=O)C(O)C(Oc2ccc3c(O)c(NC(=O)c4ccc(O)c(CC=C(C)C)c4)c(=O)oc3c2C)OC1(C)C, the IC50 runs as follows: (curve of first compound, second compound 0.0316 µM) above 100 nM; (curve of first compound, second compound 0.1 µM) above 100 nM; (curve of first compound, second compound 0.316 µM) above 100 nM; (curve of first compound, second compound 1 µM) above 100 nM; (curve of first compound, second compound 3.16 µM) above 100 nM; (curve of first compound, second compound 10 µM) above 100 nM. Moreover, the viability, T/C runs as follows: (second compound 0.0316 µM, first compound 0.000316 µM) 92.5%; (second compound 0.0316 µM, first compound 0.001 µM) 96.1%; (second compound 0.0316 µM, first compound 0.00316 µM) 123%; (second compound 0.0316 µM, first compound 0.01 µM) 93.6%; (second compound 0.0316 µM, first compound 0.0316 µM) 71.5%; (second compound 0.0316 µM, first compound 0.1 µM) 63.2%. The viability, T/C runs as follows: (second compound 0.1 µM, first compound 0.000316 µM) 97.7%; (second compound 0.1 µM, first compound 0.001 µM) 81.9%; (second compound 0.1 µM, first compound 0.00316 µM) 93.4%; (second compound 0.1 µM, first compound 0.01 µM) 94.6%; (second compound 0.1 µM, first compound 0.0316 µM) 72.8%; (second compound 0.1 µM, first compound 0.1 µM) 55.6%. The viability, T/C (second compound 0.316 µM, first compound 0.000316 µM) is 93.7%; the viability, T/C (second compound 0.316 µM, first compound 0.001 µM) is 101%; the viability, T/C (second compound 0.316 µM, first compound 0.00316 µM) is 93.3%; the viability, T/C (second compound 0.316 µM, first compound 0.01 µM) was 76.6%; the viability, T/C (second compound 0.316 µM, first compound 0.0316 µM) is 66.3%; the viability, T/C (second compound 0.316 µM, first compound 0.1 µM) was 77.7%. The viability, T/C is 91.4% (second compound 1 µM, first compound 0.000316 µM); 103% (second compound 1 µM, first compound 0.001 µM); 104% (second compound 1 µM, first compound 0.00316 µM); 106% (second compound 1 µM, first compound 0.01 µM); 59.9% (second compound 1 µM, first compound 0.0316 µM); 66.4% (second compound 1 µM, first compound 0.1 µM). In addition, the viability, T/C is 106% (second compound 3.16 µM, first compound 0.000316 µM); 81.2% (second compound 3.16 µM, first compound 0.001 µM); 117% (second compound 3.16 µM, first compound 0.00316 µM); 82.3% (second compound 3.16 µM, first compound 0.01 µM); 70.4% (second compound 3.16 µM, first compound 0.0316 µM); 65.2% (second compound 3.16 µM, first compound 0.1 µM). Also, the viability, T/C by setting is: (second compound 10 µM, first compound 0.000316 µM) 89.5%; (second compound 10 µM, first compound 0.001 µM) 102%; (second compound 10 µM, first compound 0.00316 µM) 110%; (second compound 10 µM, first compound 0.01 µM) 79.5%; (second compound 10 µM, first compound 0.0316 µM) 78.4%; (second compound 10 µM, first compound 0.1 µM) 71.8%.
With `Nc1ccn(C2OC(CO)C(O)C2(F)F)c(=O)n1` (stereo unspecified), the viability, T/C was 26% and 34.1% and 24.7% (compound 0.0316 µM); 4.77% and 7.08% and 7.51% (compound 0.1 µM); 5.46% and 6.51% and 7.23% (compound 0.316 µM); 6.12% and 6.87% and 8.28% (compound 1 µM); 4.43% and 9.96% and 4.73% (compound 3.16 µM); 1.87% and 3.82% and 1.78% (compound 10 µM). Besides, the concentration for half-maximal inhibition (IC50) (curve of compound) is below 31.6 nM.
For `CCc1cc2c(N3CCc4c(cc(Cn5ccnc5)cc4-c4cn(C)nc4C(F)(F)F)C3=O)cc(C)nc2c(OC)n1`, the viability, T/C is, setting by setting: (compound 0.0316 µM) 79% and 66% and 74.7%; (compound 0.1 µM) 78.9% and 75.4% and 75.9%; (compound 0.316 µM) 90.3% and 75% and 87.3%; (compound 1 µM) 93.3% and 71.1% and 84.3%; (compound 3.16 µM) 74.8% and 70.8% and 89.7%; (compound 10 µM) 72% and 68.3% and 85.2%. Also, where the note is “curve of compound”, the IC50 is above 10000 nM.
For the compound `O=C(c1cc(Cc2n[nH]c(=O)c3ccccc23)ccc1F)N1CCN(C(=O)C2CC2)CC1`, the viability, T/C is 98.7% and 77.9% and 85.7% (compound 0.0316 µM); 94% and 103% and 89.2% (compound 0.1 µM); 101% and 90.9% and 80.3% (compound 0.316 µM); 91.5% and 88.8% and 54.5% (compound 1 µM); 63.4% and 55.2% and 62.6% (compound 3.16 µM); 32.4% and 33.3% and 36.9% (compound 10 µM). Moreover, the IC50 (curve of compound) is 5190 nM and 4150 nM and 4320 nM.
In the case of `Cn1ncnc1[C@H]1c2n[nH]c(=O)c3cc(F)cc(c23)N[C@@H]1c1ccc(F)cc1`, the viability, T/C is, setting by setting: (compound 0.000316 µM) 118% and 108% and 103%; (compound 0.001 µM) 82.7% and 80.6% and 106%; (compound 0.00316 µM) 69.9% and 79.6% and 106%; (compound 0.01 µM) 104% and 80% and 82.1%; (compound 0.0316 µM) 87.1% and 53.5% and 66.7%; (compound 0.1 µM) 65.3% and 44.1% and 65.5%. For the same compound, the half-maximal inhibitory concentration (IC50) (curve of compound) was > 100 nM and 61.9 nM.
Take `C=CCn1c(=O)c2cnc(Nc3ccc(N4CCN(C)CC4)cc3)nc2n1-c1cccc(C(C)(C)O)n1`: the viability, T/C is, setting by setting: (compound 0.00316 µM) 106% and 121% and 99.1%; (compound 0.01 µM) 109% and 114% and 99.8%; (compound 0.0316 µM) 113% and 106% and 123%; (compound 0.1 µM) 105% and 97.1% and 72.5%; (compound 0.316 µM) 97.5% and 68.8% and 88.4%; (compound 1 µM) 27.4% and 34.9% and 30.9%. The IC50 (curve of compound) is 691 nM and 608 nM and 651 nM.
As for `CC1COCCN1c1cc(C2(S(C)(=N)=O)CC2)nc(-c2ccnc3[nH]ccc23)n1` (stereo unspecified), the viability, T/C by setting is: (compound 0.0316 µM) 106% and 105% and 113%; (compound 0.1 µM) 112% and 97.5% and 98.7%; (compound 0.316 µM) 90.5% and 86.8% and 93.9%; (compound 1 µM) 70.6% and 57.9% and 68.7%; (compound 3.16 µM) 42% and 44.5% and 52%; (compound 10 µM) 56.6% and 52.9% and 32.3%. In addition, the half-inhibitory concentration (IC50) (curve of compound) is 8060 nM and 2890 nM and 3410 nM.

The viability, T/C is the result in the treated group divided by that in the control group, in per cent. By IC50 is commonly meant the concentration that gives 50% inhibition.
